Experimental data reported in PubChem BioAssay (NCI).
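Tested at 5 concentrations; 48 h exposure; 96-well plates; endpoints linearly interpolated, else capped at highest concentration. Abbreviation: GI50, concentration required for 50% inhibition of growth. TGI marks complete inhibition of growth.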

Experiments:
Test in all cases: NCI-60 cell line screen, 48 h
[1] = tested on: 786-0 renal
[2] = tested on: A498 renal
[3] = tested on: A549 NSCLC
[4] = tested on: ACHN renal
[5] = tested on: BT-549 breast
[6] = tested on: CAKI-1 renal
[7] = tested on: CCRF-CEM leukemia
[8] = tested on: COLO 205 colon
[9] = tested on: DU-145 prostate
[10] = tested on: EKVX NSCLC
[11] = tested on: HCC-2998 colon
[12] = tested on: HCT-116 colon
[13] = tested on: HCT-15 colon
[14] = tested on: HOP-62 NSCLC
[15] = tested on: HOP-92 NSCLC
[16] = tested on: HT29 colon
[17] = tested on: IGROV1 ovarian
[18] = tested on: K-562 leukemia
[19] = tested on: KM12 colon
[20] = tested on: LOX IMVI melanoma
[21] = tested on: M14 melanoma
[22] = tested on: MALME-3M melanoma
[23] = tested on: MCF7 breast
[24] = tested on: MDA-MB-231 breast
[25] = tested on: MDA-MB-435
[26] = tested on: MOLT-4 leukemia
[27] = tested on: NCI-H226 lung
[28] = tested on: NCI-H23 lung
[29] = tested on: NCI-H460 lung
[30] = tested on: NCI-H522 lung
[31] = tested on: NCI/ADR-RES ovarian
[32] = tested on: OVCAR-4 ovarian
[33] = tested on: OVCAR-5 ovarian
[34] = tested on: OVCAR-8 ovarian
[35] = tested on: PC-3 prostate
[36] = tested on: RPMI-8226 leukemia
[37] = tested on: RXF 393 renal
[38] = tested on: SF-268 CNS
[39] = tested on: SF-295 CNS
[40] = tested on: SF-539 CNS
[41] = tested on: SK-MEL-2 melanoma
[42] = tested on: SK-MEL-28 melanoma
[43] = tested on: SK-MEL-5 melanoma
[44] = tested on: SK-OV-3 ovarian
[45] = tested on: SN12C renal
[46] = tested on: SNB-19 CNS
[47] = tested on: SNB-75 CNS
[48] = tested on: SR leukemia
[49] = tested on: SW-620 colon
[50] = tested on: T-47D breast
[51] = tested on: TK-10 renal
[52] = tested on: U251 CNS
[53] = tested on: UACC-257 melanoma
[54] = tested on: UACC-62 melanoma
[55] = tested on: UO-31 renal

Structure (SMILES): CCCCCc1ccc(S(=O)(=O)Nc2cc(-c3csc(NC(=O)CN4CCN(CCO)CC4)n3)ccc2OC)cc1
- GI50 [1]: 1.85 µM
- TGI [1]: 3.39 µM
- GI50 [2]: 1.58 µM
- TGI [2]: 2.95 µM
- GI50 [3]: 1.89 µM
- TGI [3]: 4.18 µM
- GI50 [4]: 1.81 µM
- TGI [4]: 3.28 µM
- GI50 [5]: 1.55 µM
- TGI [5]: 3.1 µM
- GI50 [6]: 1.62 µM
- TGI [6]: 3.32 µM
- GI50 [7]: 2.54 µM
- TGI [7]: 7.83 µM
- GI50 [8]: 1.61 µM
- TGI [8]: 3.11 µM
- GI50 [9]: 1.89 µM
- TGI [9]: 3.6 µM
- GI50 [10]: 1.69 µM
- TGI [10]: 3.59 µM
- GI50 [11]: 1.93 µM
- TGI [11]: 3.8 µM
- GI50 [12]: 1.72 µM
- TGI [12]: 3.24 µM
- GI50 [13]: 1.86 µM
- TGI [13]: 3.65 µM
- GI50 [14]: 1.66 µM
- TGI [14]: 3.18 µM
- GI50 [15]: 1.5 µM
- TGI [15]: 3 µM
- GI50 [16]: 1.89 µM
- TGI [16]: 3.75 µM
- GI50 [17]: 1.92 µM
- TGI [17]: 4.01 µM
- GI50 [18]: 2.69 µM
- TGI [18]: > 100 µM
- GI50 [19]: 1.92 µM
- TGI [19]: 3.7 µM
- GI50 [20]: 1.73 µM
- TGI [20]: 3.24 µM
- GI50 [21]: 1.71 µM
- TGI [21]: 3.24 µM
- GI50 [22]: 1.64 µM
- TGI [22]: 3.15 µM
- GI50 [23]: 1.62 µM
- TGI [23]: 3.2 µM
- GI50 [24]: 1.94 µM
- TGI [24]: 3.83 µM
- GI50 [25]: 1.7 µM
- TGI [25]: 3.21 µM
- GI50 [26]: 3.17 µM
- TGI [26]: 10.6 µM
- GI50 [27]: 1.9 µM
- TGI [27]: 3.88 µM
- GI50 [28]: 1.93 µM
- TGI [28]: 4.38 µM
- GI50 [29]: 1.84 µM
- TGI [29]: 3.46 µM
- GI50 [30]: 1.86 µM
- TGI [30]: 3.58 µM
- GI50 [31]: 3.49 µM
- TGI [31]: 14.1 µM
- GI50 [32]: 2.05 µM
- TGI [32]: 5.12 µM
- GI50 [33]: 2.19 µM
- TGI [33]: 5.44 µM
- GI50 [34]: 1.82 µM
- TGI [34]: 3.52 µM
- GI50 [35]: 2.68 µM
- TGI [35]: 7.88 µM
- GI50 [36]: 1.78 µM
- TGI [36]: 4.28 µM
- GI50 [37]: 1.38 µM
- TGI [37]: 3.01 µM
- GI50 [38]: 1.7 µM
- TGI [38]: 3.4 µM
- GI50 [39]: 1.89 µM
- TGI [39]: 3.74 µM
- GI50 [40]: 1.54 µM
- TGI [40]: 2.95 µM
- GI50 [41]: 1.78 µM
- TGI [41]: 3.36 µM
- GI50 [42]: 1.77 µM
- TGI [42]: 3.25 µM
- GI50 [43]: 1.77 µM
- TGI [43]: 3.2 µM
- GI50 [44]: 1.81 µM
- TGI [44]: 3.3 µM
- GI50 [45]: 1.94 µM
- TGI [45]: 3.69 µM
- GI50 [46]: 2.05 µM
- TGI [46]: 4.59 µM
- GI50 [47]: 1.39 µM
- TGI [47]: 2.75 µM
- GI50 [48]: 1.76 µM
- TGI [48]: 5.23 µM
- GI50 [49]: 1.75 µM
- TGI [49]: 3.3 µM
- GI50 [50]: 1.79 µM
- TGI [50]: 3.78 µM
- GI50 [51]: 1.94 µM
- TGI [51]: 3.96 µM
- GI50 [52]: 1.73 µM
- TGI [52]: 3.41 µM
- GI50 [53]: 1.66 µM
- TGI [53]: 3.22 µM
- GI50 [54]: 1.81 µM
- TGI [54]: 3.54 µM
- GI50 [55]: 1.52 µM
- TGI [55]: 3.03 µM
